The test addresses T1, GlG6PD::6PGL (fused bifunctional glucose-6-phosphate dehydrogenase::6-phosphogluconolactonase) (Giardia duodenalis, UniProt A8BWM5).
T1 construct: gene GL50803_008682; recombinant fused GlG6PD::6PGL; activity of the G6PD domain measured
Nature of the test: residual G6PD activity at […] nm after […] h preincubation at […] °C with purified recombinant enzyme; k2 […] ^-1 s^-1; intrinsic and ANS fluorescence changes. The test is classed as biochemical.

Structures are written as SMILES.

T1 sequence (A8BWM5 entry or part of it): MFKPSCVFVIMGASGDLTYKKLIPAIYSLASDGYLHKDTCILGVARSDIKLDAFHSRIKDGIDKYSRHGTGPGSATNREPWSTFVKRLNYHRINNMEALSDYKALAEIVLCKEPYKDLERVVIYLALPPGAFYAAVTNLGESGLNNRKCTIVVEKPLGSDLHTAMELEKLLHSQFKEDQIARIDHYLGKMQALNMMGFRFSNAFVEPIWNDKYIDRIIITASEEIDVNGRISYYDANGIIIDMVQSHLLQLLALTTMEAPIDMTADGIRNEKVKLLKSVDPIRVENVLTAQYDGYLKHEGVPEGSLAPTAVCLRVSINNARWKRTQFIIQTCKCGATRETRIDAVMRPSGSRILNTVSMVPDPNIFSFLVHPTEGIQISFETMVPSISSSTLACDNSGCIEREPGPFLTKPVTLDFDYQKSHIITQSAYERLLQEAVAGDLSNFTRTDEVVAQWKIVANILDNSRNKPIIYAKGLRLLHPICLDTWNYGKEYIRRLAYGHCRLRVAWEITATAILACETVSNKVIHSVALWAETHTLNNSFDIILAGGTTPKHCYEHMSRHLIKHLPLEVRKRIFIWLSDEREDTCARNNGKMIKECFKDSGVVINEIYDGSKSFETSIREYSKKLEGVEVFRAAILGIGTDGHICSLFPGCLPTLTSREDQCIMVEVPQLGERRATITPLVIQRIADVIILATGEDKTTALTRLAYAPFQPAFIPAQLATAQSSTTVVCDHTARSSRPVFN

`CC(=O)Oc1ccccc1C(=O)Nc1ncc([N+](=O)[O-])s1` [NTZ, 2-acetyloloxy-N-(5-nitro-2thiazolyl)benzamide]: the IC50 is 40 µM.

The record behind these values is publication PMC10380810, “Nitazoxanide Inhibits the Bifunctional Enzyme GlG6PD::6PGL of Giardia lamblia: Biochemical and In Silico Characterization of a New Druggable Target” (International Journal of Molecular Sciences, 2023).
